Source: patent US20110190345A1, “Treatment of Psychosis with a 5HT2A Antagonist and a Metabotropic Glutamate Receptor Agonist or Potentiator” (priority 2007, published 2011)

Experiments:
Format in all cases: in vivo, rat
Male Wistar rats [1] = assay: Ketamine-induced psychomotor activity (locomotor activity, total distance traveled); conditions: mGluR2/3 agonist 1 mpk; for whether ketamine increased psychomotor activity (locomotor response): FIG. 2, first 60 minutes after ketamine or saline, 5-HT2a antagonist 0.2 mpk
Text: (§1) Compounds with antipsychotic efficacy are known to block Ketamine-induced psychomotor activity in rats (Bardi et al., Behavioural Pharmacology (2007), 18(2), 103-118). Male Wistar rats were received on site and housed for 7 days with food and water ad libitum. On the day of testing, animals were given vehicle (water for mGluR2/3 agonist, 1% Tween for 5-HT2A antagonist), the 5-HT2A antagonist volinanserin (0.2 mpk), the mGluR2/3 agonist (−)-2-oxa-4-aminobicyclo[3.1.0]hexane-4,6-dicarboxylate (1 mpk), or both the 5-HT2A antagonist (0.2 mpk) and the mGluR2/3 agonist (1 mpk) and placed in locomotor activity monitors. Thirty minutes later animals received a subcutaneous injection of saline or 37.5 mg/kg Ketamine and placed back into the'locomotor activity monitors for 90 minutes. Total distance traveled was used to assess locomotor behavior. The distance traveled is summed over the ninety minutes after ketamine or saline treatment.
Similarly, locomotor response was determined over the first 60 minutes after receiving ketamine or saline as a function of treatment with vehicle, the 5-HT2a antagonist (0.2 mpk), the mGluR2/3 agonist (1 mpk), or the 5-HT2a antagonist (0.2 mpk)+the mGluR2/3 agonist (1 mpk).

Male Wistar rats [2] = assay: Amphetamine-induced psychomotor activity (locomotor activity, total distance traveled); conditions: FIG. 3; summed over 90 minutes after 1.5 mg/kg s.c. amphetamine; 5-HT2a antagonist 0.2 mpk, mGluR2/3 agonist 1 mpk
Text: as §1, with “amphetamine-induced” for “Ketamine-induced”, “1.5” for “37.5”, “amphetamine” for “Ketamine”, “the locomotor” for “the'locomotor”, “amphetamine” for “ketamine”

Male Wistar rats [3] = assay: MK-801-induced psychomotor activity (locomotor activity, total distance traveled); conditions: 5-HT2A antagonist 0.2 mpk, mGluR2/3 agonist 1 mpk; for reduction of the response to MK-801: 90 minutes after 0.2 mg/kg s.c. MK-801; for psychomotor activity, total distance traveled after MK-801: summed over 90 minutes after 0.2 mg/kg s.c. MK-801, control≃200 cm, MK-801 alone≃2000 cm
Experimental: Male Wistar rats were received on site and housed for 7 days with food and water ad libitum. […] Thirty minutes later animals received a subcutaneous injection of saline or 0.2 mg/kg MK-801 and were placed back into the locomotor activity monitors for 90 minutes. Total distance traveled was used to assess locomotor behavior. The distance traveled is summed over the ninety minutes after MK-801 or saline treatment.

`NC1(C(=O)O)COC2C(C(=O)O)C21` (single isomer, unassigned; (-)) [mGluR2/3 agonist, (−)-2-oxa-4-aminobicyclo[3.1.0]hexane-4,6-dicarboxylate] was tested, and the “response to ketamine (psychomotor activity, distance traveled) relative to the 0-0-Ketamine group” value (Male Wistar rats [1]; FIG. 1, summed over 90 minutes after 37.5 mg/kg s.c. ketamine, 5-HT2A antagonist 0.2 mpk, given 30 min before) was “decreased the response to ketamine”, the “whether ketamine increased psychomotor activity (locomotor response)” value (Male Wistar rats [1]) was “ketamine increased psychomotor activity” and the “influence on amphetamine-induced psychomotor activity” value (Male Wistar rats [2]) was “did not influence amphetamine-induced psychomotor activity”. The “reduction of the response to MK-801” value (Male Wistar rats [3]) was “Neither the mGluR2/3 agonist nor the 5-HT2A antagonist given alone reduced the response to MK-801” and the “psychomotor activity, total distance traveled after MK-801” value (Male Wistar rats [3]) was about 1900 cm.

With `COc1cccc([C@H](O)C2CCN(CCc3ccc(F)cc3)CC2)c1OC` [5-HT2A antagonist, (+)-alpha-(2,3-dimethoxyphenyl)-1-[2-(4 fluorophenyl)ethyl]-4-piperidine methanol] the “whether ketamine increased psychomotor activity (locomotor response)” value (Male Wistar rats [1]) was “ketamine increased psychomotor activity”, the “influence on amphetamine-induced psychomotor activity” value (Male Wistar rats [2]) was “did not influence amphetamine-induced psychomotor activity” and the “reduction of the response to MK-801” value (Male Wistar rats [3]) was “Neither the mGluR2/3 agonist nor the 5-HT2A antagonist given alone reduced the response to MK-801”. For the same molecule, the “psychomotor activity, total distance traveled after MK-801” value (Male Wistar rats [3]) was about 2500 cm.
